Reference: the kinase profiling compilation of Christmann-Franck et al. (2016)

How the values were obtained:
Assay in all cases: KINOMEscan competition binding
Conditions in all cases: compound 10.0 µM
CHEK1 (human) = CHEK1 (human) (UniProt O14757)
DAPK3 (human) = DAPK3 (human) (UniProt O43293)
DCLK1 (human) = DCLK1 (human) (UniProt O15075)
DCLK2 (human) = DCLK2 (human) (UniProt Q8N568)
[1] = system: EIF2AK4 KD2 (human), Q9P2K8 [S808G]
GAK (human) = GAK (human) (UniProt O14976)
MAP2K3 (human) = MAP2K3 (human) (UniProt P46734)
PLK1 (human) = PLK1 (human) (UniProt P53350)
PLK3 (human) = PLK3 (human) (UniProt Q9H4B4)
PRKD1 (human) = PRKD1 (human) (UniProt Q15139)
PRKD2 (human) = PRKD2 (human) (UniProt Q9BZL6)
RIOK2 (human) = RIOK2 (human) (UniProt Q9BVS4)
RPS6KA1 KD2 (human) = RPS6KA1 KD2 (human) (UniProt Q15418)
RPS6KA2 KD2 (human) = RPS6KA2 KD2 (human) (UniProt Q15349)
RPS6KA4 KD2 (human) = RPS6KA4 KD2 (human) (UniProt O75676)
RPS6KA6 KD2 (human) = RPS6KA6 KD2 (human) (UniProt Q9UK32)
STK33 (human) = STK33 (human) (UniProt Q9BYT3)
TSSK1B (human) = TSSK1B (human) (UniProt Q9BXA7)
TTK (human) = TTK (human) (UniProt P33981)
ULK2 (human) = ULK2 (human) (UniProt Q8IYT8)
AKT2 (human) = AKT2 (human) (UniProt P31751)
CDK11A (human) = CDK11A (human) (UniProt Q9UQ88)
CSNK2A2 (human) = CSNK2A2 (human) (UniProt P19784)
DAPK2 (human) = DAPK2 (human) (UniProt Q9UIK4)
HIPK1 (human) = HIPK1 (human) (UniProt Q86Z02)
MINK1 (human) = MINK1 (human) (UniProt Q8N4C8)
[2] = system: PIK3CA (human), P42336 [E545K]
PIK3CG (human) = PIK3CG (human) (UniProt P48736)
PIM1 (human) = PIM1 (human) (UniProt P11309)
PIM2 (human) = PIM2 (human) (UniProt Q9P1W9)
PIM3 (human) = PIM3 (human) (UniProt Q86V86)
ULK3 (human) = ULK3 (human) (UniProt Q6PHR2)
AAK1 (human) = AAK1 (human) (UniProt Q2M2I8)
ANKK1 (human) = ANKK1 (human) (UniProt Q8NFD2)
BMPR1B (human) = BMPR1B (human) (UniProt O00238)
CAMK2A (human) = CAMK2A (human) (UniProt Q9UQM7)
CAMK2G (human) = CAMK2G (human) (UniProt Q13555)
CDK16 (human) = CDK16 (human) (UniProt Q00536)
CSNK1G1 (human) = CSNK1G1 (human) (UniProt Q9HCP0)
EIF2AK2 (human) = EIF2AK2 (human) (UniProt P19525)
LATS2 (human) = LATS2 (human) (UniProt Q9NRM7)
MAP2K6 (human) = MAP2K6 (human) (UniProt P52564)
MAPK10 (human) = MAPK10 (human) (UniProt P53779)
MAPK14 (human) = MAPK14 (human) (UniProt Q16539)
MAPK8 (human) = MAPK8 (human) (UniProt P45983)
MAPK9 (human) = MAPK9 (human) (UniProt P45984)
PAK7 (human) = PAK7 (human) (UniProt Q9P286)
PIK3CB (human) = PIK3CB (human) (UniProt P42338)
PLK4 (human) = PLK4 (human) (UniProt O00444)
SRPK1 (human) = SRPK1 (human) (UniProt Q96SB4)
STK25 (human) = STK25 (human) (UniProt O00506)
STK38L (human) = STK38L (human) (UniProt Q9Y2H1)
TAOK3 (human) = TAOK3 (human) (UniProt Q9H2K8)
TLK1 (human) = TLK1 (human) (UniProt Q9UKI8)
TLK2 (human) = TLK2 (human) (UniProt Q86UE8)
TNIK (human) = TNIK (human) (UniProt Q9UKE5)
ULK1 (human) = ULK1 (human) (UniProt O75385)
ZAP70 (human) = ZAP70 (human) (UniProt P43403)

Chain of RPS6KA2 KD2 (human) (Q15349 whole entry, looked up): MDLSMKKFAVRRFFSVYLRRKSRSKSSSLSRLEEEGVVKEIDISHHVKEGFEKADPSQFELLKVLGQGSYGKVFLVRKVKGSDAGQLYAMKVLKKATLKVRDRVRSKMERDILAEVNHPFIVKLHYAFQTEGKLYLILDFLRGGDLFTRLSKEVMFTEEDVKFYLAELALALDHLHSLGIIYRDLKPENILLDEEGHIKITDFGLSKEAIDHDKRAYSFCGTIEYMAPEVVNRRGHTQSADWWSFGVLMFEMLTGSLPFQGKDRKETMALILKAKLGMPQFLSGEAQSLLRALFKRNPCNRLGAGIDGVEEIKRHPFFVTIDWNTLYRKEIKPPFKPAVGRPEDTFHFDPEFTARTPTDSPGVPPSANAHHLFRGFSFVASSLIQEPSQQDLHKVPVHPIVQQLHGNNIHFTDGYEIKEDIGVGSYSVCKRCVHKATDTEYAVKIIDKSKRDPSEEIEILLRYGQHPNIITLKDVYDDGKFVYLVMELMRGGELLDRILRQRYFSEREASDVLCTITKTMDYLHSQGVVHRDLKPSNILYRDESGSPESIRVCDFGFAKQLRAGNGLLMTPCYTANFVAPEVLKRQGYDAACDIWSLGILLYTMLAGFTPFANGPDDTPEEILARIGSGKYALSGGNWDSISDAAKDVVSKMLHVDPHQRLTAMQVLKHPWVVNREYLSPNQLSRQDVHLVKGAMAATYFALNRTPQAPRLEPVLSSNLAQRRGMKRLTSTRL
Chain of ULK3 (human) (Q6PHR2 whole entry, looked up): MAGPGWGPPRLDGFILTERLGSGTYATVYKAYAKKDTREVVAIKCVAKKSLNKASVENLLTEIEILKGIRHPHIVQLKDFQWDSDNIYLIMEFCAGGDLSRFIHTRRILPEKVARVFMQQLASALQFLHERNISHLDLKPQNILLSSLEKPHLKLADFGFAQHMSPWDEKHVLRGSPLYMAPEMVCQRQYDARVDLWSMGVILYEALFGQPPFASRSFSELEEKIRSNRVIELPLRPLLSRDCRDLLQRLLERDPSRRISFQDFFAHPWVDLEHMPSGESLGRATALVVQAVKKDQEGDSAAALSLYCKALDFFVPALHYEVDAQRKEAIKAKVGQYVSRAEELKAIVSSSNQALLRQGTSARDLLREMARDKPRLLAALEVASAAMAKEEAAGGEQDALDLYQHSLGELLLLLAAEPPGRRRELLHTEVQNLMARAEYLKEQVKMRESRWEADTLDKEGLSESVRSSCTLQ
Chain of RPS6KA6 KD2 (human) (Q9UK32 whole entry, looked up): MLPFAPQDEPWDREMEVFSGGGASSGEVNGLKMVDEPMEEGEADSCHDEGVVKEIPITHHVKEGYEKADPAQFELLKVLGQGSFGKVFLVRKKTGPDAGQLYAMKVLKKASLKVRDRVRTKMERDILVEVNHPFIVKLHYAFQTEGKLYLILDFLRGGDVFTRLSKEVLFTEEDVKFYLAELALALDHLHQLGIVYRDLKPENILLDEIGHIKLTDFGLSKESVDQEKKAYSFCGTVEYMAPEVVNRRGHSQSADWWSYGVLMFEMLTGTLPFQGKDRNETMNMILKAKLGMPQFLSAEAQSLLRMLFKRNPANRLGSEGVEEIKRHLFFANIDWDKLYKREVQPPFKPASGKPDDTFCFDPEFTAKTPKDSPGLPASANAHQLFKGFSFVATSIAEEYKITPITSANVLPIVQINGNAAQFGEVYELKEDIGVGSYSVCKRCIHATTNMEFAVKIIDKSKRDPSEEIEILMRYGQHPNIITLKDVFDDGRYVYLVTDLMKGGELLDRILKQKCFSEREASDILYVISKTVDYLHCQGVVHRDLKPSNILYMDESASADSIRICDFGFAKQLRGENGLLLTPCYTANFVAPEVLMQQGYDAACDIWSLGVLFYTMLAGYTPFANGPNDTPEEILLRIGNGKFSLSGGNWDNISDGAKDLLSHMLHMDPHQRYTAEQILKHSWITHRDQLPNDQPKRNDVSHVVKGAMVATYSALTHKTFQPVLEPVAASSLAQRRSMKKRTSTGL
Chain of GAK (human) (O14976 whole entry, looked up): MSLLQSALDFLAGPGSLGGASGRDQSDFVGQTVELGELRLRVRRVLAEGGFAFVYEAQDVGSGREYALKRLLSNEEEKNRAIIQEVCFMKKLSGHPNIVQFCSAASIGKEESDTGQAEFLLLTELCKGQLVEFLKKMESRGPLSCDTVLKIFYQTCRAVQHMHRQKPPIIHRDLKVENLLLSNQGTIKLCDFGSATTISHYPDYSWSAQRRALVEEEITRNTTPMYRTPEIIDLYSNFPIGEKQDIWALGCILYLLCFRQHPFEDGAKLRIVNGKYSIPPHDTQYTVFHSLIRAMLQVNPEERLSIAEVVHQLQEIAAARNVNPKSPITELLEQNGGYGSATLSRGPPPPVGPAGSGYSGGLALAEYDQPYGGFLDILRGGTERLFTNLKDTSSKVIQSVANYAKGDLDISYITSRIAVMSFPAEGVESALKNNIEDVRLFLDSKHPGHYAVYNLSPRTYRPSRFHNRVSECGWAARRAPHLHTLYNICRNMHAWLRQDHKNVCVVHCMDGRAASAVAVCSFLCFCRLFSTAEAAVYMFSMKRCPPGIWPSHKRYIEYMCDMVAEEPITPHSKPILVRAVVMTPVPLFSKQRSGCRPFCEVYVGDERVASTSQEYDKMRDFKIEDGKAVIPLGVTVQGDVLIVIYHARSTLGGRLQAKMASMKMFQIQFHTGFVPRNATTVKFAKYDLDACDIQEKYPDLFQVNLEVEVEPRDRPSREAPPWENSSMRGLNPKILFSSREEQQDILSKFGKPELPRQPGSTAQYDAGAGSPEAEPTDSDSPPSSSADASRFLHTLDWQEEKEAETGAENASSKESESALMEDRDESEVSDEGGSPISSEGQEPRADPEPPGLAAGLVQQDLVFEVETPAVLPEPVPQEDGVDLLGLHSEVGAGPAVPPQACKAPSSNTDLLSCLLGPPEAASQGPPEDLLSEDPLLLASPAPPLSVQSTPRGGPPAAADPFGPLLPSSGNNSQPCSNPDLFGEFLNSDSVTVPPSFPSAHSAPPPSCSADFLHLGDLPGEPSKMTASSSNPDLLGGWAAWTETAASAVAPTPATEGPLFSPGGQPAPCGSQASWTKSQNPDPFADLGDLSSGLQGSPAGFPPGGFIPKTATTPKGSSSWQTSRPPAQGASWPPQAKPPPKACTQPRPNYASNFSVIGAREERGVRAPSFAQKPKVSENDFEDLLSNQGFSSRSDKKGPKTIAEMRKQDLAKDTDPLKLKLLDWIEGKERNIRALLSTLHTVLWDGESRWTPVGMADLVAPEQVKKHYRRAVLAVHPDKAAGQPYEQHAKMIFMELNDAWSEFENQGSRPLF
Chain of PIM1 (human) (P11309 whole entry, looked up): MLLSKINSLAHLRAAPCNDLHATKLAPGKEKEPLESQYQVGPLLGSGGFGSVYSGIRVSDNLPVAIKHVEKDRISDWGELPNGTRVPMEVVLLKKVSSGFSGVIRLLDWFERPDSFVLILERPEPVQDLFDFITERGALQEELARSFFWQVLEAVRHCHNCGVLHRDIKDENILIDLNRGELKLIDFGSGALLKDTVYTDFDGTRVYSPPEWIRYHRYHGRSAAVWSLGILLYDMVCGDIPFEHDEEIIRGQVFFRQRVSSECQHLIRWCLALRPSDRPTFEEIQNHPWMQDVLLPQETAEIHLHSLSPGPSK
Chain of RPS6KA1 KD2 (human) (Q15418 whole entry, looked up): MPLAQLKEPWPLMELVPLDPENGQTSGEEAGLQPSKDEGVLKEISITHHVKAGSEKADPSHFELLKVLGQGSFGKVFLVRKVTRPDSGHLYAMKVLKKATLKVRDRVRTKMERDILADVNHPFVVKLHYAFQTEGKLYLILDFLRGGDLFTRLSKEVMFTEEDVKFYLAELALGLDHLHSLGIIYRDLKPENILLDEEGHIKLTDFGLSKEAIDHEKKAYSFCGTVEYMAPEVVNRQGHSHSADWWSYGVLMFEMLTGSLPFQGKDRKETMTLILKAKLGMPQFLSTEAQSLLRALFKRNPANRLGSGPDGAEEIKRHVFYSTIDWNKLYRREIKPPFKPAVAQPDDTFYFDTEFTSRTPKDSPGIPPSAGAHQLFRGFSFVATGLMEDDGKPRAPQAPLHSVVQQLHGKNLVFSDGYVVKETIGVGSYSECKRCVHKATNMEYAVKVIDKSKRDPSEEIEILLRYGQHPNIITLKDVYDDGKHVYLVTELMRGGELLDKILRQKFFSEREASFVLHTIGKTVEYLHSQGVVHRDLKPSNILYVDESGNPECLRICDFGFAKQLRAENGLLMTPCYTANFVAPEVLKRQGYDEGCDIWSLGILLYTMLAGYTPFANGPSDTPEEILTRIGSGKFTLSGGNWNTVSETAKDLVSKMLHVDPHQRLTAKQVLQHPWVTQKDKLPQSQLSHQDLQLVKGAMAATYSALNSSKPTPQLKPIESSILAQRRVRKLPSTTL
Chain of CAMK2G (human) (Q13555 whole entry, looked up): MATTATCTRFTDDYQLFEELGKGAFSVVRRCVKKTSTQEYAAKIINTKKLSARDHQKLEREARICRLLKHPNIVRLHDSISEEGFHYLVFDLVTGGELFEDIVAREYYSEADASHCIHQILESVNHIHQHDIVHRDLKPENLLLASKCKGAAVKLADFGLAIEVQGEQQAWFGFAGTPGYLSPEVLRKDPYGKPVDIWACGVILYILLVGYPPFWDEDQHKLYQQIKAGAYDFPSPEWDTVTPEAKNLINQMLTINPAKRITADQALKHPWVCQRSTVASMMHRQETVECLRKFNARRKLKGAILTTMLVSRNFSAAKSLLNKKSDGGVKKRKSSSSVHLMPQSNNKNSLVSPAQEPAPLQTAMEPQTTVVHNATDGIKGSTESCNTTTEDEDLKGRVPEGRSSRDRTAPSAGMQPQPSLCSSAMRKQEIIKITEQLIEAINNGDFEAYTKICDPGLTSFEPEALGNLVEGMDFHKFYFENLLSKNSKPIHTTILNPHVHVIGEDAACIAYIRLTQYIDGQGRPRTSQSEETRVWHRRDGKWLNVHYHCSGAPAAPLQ

Question: How did the kinase still bound, per cent of control (CHEK1 (human)) turn out when `COc1cc(N2CCN(C)CC2)ccc1Nc1ncc2c(n1)N1CCC[C@H]1CC(=O)N2C` was run?
Answer: Its kinase still bound, per cent of control is 16%.

Question: And the kinase still bound, per cent of control (DAPK3 (human))?
Answer: Its kinase still bound, per cent of control is 28%.

Question: And the kinase still bound, per cent of control (DCLK1 (human))?
Answer: The kinase still bound, per cent of control was 0.75%.

Question: And the kinase still bound, per cent of control (DCLK2 (human))?
Answer: The kinase still bound, per cent of control was 3.6%.

Question: What about the kinase still bound, per cent of control [1] of the same compound?
Answer: The kinase still bound, per cent of control was 18%.

Question: What about the kinase still bound, per cent of control (GAK (human)) of the same compound?
Answer: The kinase still bound, per cent of control was 6.2%.

Question: What about the kinase still bound, per cent of control (MAP2K3 (human)) of the same compound?
Answer: Its kinase still bound, per cent of control is 0.4%.

Question: And the kinase still bound, per cent of control (PLK1 (human))?
Answer: The kinase still bound, per cent of control was 2.4%.

Question: And the kinase still bound, per cent of control (PLK3 (human))?
Answer: The kinase still bound, per cent of control was 3.6%.

Question: What about the kinase still bound, per cent of control (PRKD1 (human)) of the same compound?
Answer: The kinase still bound, per cent of control was 15%.

Question: And the kinase still bound, per cent of control (PRKD2 (human))?
Answer: Its kinase still bound, per cent of control is 2.6%.

Question: And the kinase still bound, per cent of control (RIOK2 (human))?
Answer: The kinase still bound, per cent of control was 0.2%.

Question: And the kinase still bound, per cent of control (RPS6KA1 KD2 (human))?
Answer: The kinase still bound, per cent of control was 28%.

Question: And the kinase still bound, per cent of control (RPS6KA2 KD2 (human))?
Answer: The kinase still bound, per cent of control was 9.4%.

Question: And the kinase still bound, per cent of control (RPS6KA4 KD2 (human))?
Answer: Its kinase still bound, per cent of control is 33%.

Question: And the kinase still bound, per cent of control (RPS6KA6 KD2 (human))?
Answer: The kinase still bound, per cent of control was 8.6%.

Question: And the kinase still bound, per cent of control (STK33 (human))?
Answer: Its kinase still bound, per cent of control is 5%.

Question: What about the kinase still bound, per cent of control (TSSK1B (human)) of the same compound?
Answer: The kinase still bound, per cent of control was 23%.

Question: What about the kinase still bound, per cent of control (TTK (human)) of the same compound?
Answer: The kinase still bound, per cent of control was 2.6%.

Question: What about the kinase still bound, per cent of control (ULK2 (human)) of the same compound?
Answer: The kinase still bound, per cent of control was 19%.

Question: `O=C1NC(=O)C(=Cc2ccc(-c3ccc(F)cc3O)o2)C(=O)N1` was tested. Which kinase still bound, per cent of control (AKT2 (human)) did it give?
Answer: Its kinase still bound, per cent of control is 17%.

Question: What about the kinase still bound, per cent of control (CDK11A (human)) of the same compound?
Answer: The kinase still bound, per cent of control was 31%.

Question: Which results are given for `NS(=O)(=O)c1ccc(-c2cccc(/C=C3\SC(=O)NC3=O)c2)cc1`?
Answer: kinase still bound, per cent of control (CSNK2A2 (human)): 4.2%; kinase still bound, per cent of control (DAPK2 (human)): 26%; kinase still bound, per cent of control (HIPK1 (human)): 2.2%; kinase still bound, per cent of control (MINK1 (human)): 30%; kinase still bound, per cent of control [2]: 16%; kinase still bound, per cent of control (PIK3CG (human)): 10%; kinase still bound, per cent of control (PIM1 (human)): 4.2%; kinase still bound, per cent of control (PIM2 (human)): 1.4%; kinase still bound, per cent of control (PIM3 (human)): 5.1%; kinase still bound, per cent of control (ULK3 (human)): 18%

Question: Which results are given for `NS(=O)(=O)c1ccc(-c2ccc(/C=C3\SC(=S)N(CC(=O)O)C3=O)o2)cc1`?
Answer: kinase still bound, per cent of control (AAK1 (human)): 34%; kinase still bound, per cent of control (ANKK1 (human)): 31%; kinase still bound, per cent of control (BMPR1B (human)): 27%; kinase still bound, per cent of control (CAMK2A (human)): 34%; kinase still bound, per cent of control (CAMK2G (human)): 33%; kinase still bound, per cent of control (CDK16 (human)): 0.35%; kinase still bound, per cent of control (CSNK1G1 (human)): 27%; kinase still bound, per cent of control (EIF2AK2 (human)): 32%; kinase still bound, per cent of control (GAK (human)): 20%; kinase still bound, per cent of control (LATS2 (human)): 25%; kinase still bound, per cent of control (MAP2K6 (human)): 32%; kinase still bound, per cent of control (MAPK10 (human)): 30%; kinase still bound, per cent of control (MAPK14 (human)): 20%; kinase still bound, per cent of control (MAPK8 (human)): 22%; kinase still bound, per cent of control (MAPK9 (human)): 21%; kinase still bound, per cent of control (MINK1 (human)): 23%; kinase still bound, per cent of control (PAK7 (human)): 22%; kinase still bound, per cent of control (PIK3CB (human)): 29%; kinase still bound, per cent of control (PIM1 (human)): 33%; kinase still bound, per cent of control (PLK4 (human)): 0.35%; kinase still bound, per cent of control (RPS6KA1 KD2 (human)): 29%; kinase still bound, per cent of control (RPS6KA2 KD2 (human)): 22%; kinase still bound, per cent of control (RPS6KA6 KD2 (human)): 32%; kinase still bound, per cent of control (SRPK1 (human)): 22%; kinase still bound, per cent of control (STK25 (human)): 34%; kinase still bound, per cent of control (STK38L (human)): 19%; kinase still bound, per cent of control (TAOK3 (human)): 34%; kinase still bound, per cent of control (TLK1 (human)): 22%; kinase still bound, per cent of control (TLK2 (human)): 25%; kinase still bound, per cent of control (TNIK (human)): 32%; kinase still bound, per cent of control (ULK1 (human)): 29%; kinase still bound, per cent of control (ULK3 (human)): 26%; kinase still bound, per cent of control (ZAP70 (human)): 21%
